# Measurements taken from US20190247353A1, “ACNE STRAIN-SELECTIVE ANTIBACTERIAL AGENT” (MOMOTANI JUNTENKAN CO., LTD., priority 2016, published 2019).
# Where two headings read alike, the source gives them in different places.
# Legend:
# Assay type in all cases: cell-based, Propionibacterium acnes
# HL043PA2 strain (RT5) = assay: MIC by broth microdilution method, HL043PA2 strain; settings: Cutibacterium acnes; Example 6, method as Example 1; read-out: MIC against acne bacterium strain HL043 PA2 strain (RT5)
# Protocol: (§1) The antibacterial activity of a test substance was determined based on the minimum inhibitory concentration (MIC). An MIC was measured according to the broth microdilution method which is the standard method of Japanese Society of Chemotherapy.
# (§2) Each of strain suspensions (5.0×10^4 cfu/mL) was aliquoted in a 96-well round bottom microplate, each of the test substance (fatty acid concentration 10,000 μg/mL) was added at a 1/10 volume to the aliquot and mixed to prepare measurement samples (fatty acid concentration: 1,000 μg/mL). Measurement samples in 2-fold dilution series were prepared using the strain suspension (fatty acid concentration from 0.48 to 1,000 μg/mL). Using a sample containing only the solvent (DMSO) as a control, it was confirmed that the influence of the solvent on the growth of each strain could be neglected.
# (§3) The measurement samples were incubated under an anaerobic condition at 37° C. for 2 days. The presence or absence of a precipitation of test microbial cells after the incubation was examined and the minimum concentration at which the precipitation of microbial cells […] was regarded as the MIC (μg/mL) of the test substance against the acne bacterium strain.
# The MIC of each of the following test substances was measured substantially in the same manner as in Example 1 (Table 12) except that a suspension of test bacterium strains was prepared using the dominant strain in acne patients (HL005PA1 strain (HM-492^†, RT4 strain), […] (HM-524^†, RT4 strain), HL045PA1 strain (HM-516^†, RT4 strain), or HL043PA2 strain (HM-514^†, RT5 strain)), or the dominant strain in healthy subjects (HL110PA4 strain (HM-555^†, RT6 strain) instead of the dominant strains in acne patients (HL053PA1 strain (RT4 strain) and HL043PA1 strain (RT5 strain)) and the dominant strain in healthy subjects (HL110PA3 strain (RT6 strain) used in Examples 1 to 3.
# HL043PA1 strain (RT5) = assay: MIC by broth microdilution method, HL043PA1 strain; settings: for MIC: Cutibacterium acnes, read-out: MIC against acne bacterium strain HL043PA1 strain (RT5)
# Protocol: An MIC is measured herein according to the broth microdilution method which is the standard method of Japanese Society of Chemotherapy.
# as §1
# One-loopful of each acne bacterium strain listed in Table 1 was scraped off and inoculated into 5 mL of a GAM broth slant agar medium (pH 7.0, Nissui Pharmaceutical Co., Ltd.).
# The inoculated acne bacterium strain was precultured at 37° C. in a nitrogen atmosphere (anaerobic condition) for 48 hours. […]
# Each fatty acid (Tokyo Chemical Industry Co., Ltd.) listed in Table 2 was dissolved in dimethylsulfoxide (DMSO) as a solvent such that the concentration became 10,000 μg/mL, and used as a test substance.
# as §2, with “μg/mL).” for “μg/mL). Using a sample containing only the solvent (DMSO) as a control, it was confirmed that the influence of the solvent on the growth of each strain could be neglected.”
# as §3
# [1] = tested on: HL043PA1 strain (RT5 strain); assay: Time course of viable cell count, HL043PA1 strain; settings: 15 μg/mL, pH 6.0, anaerobic 37° C., 0 to 44 hours (FIG. 1b)
# Protocol: (§4) To each strain suspension (pH 6.0, 5.0×10^5 cfu/mL) of the acne bacterium strain (HL053PA1 strain (RT4 strain), HL043PA1 strain (RT5 strain), and HL110PA3 strain (RT6 strain)) prepared in the same manner as in Example 1, pentadecanoic acid (C15:0) was added to mix together (final concentration of a fatty acid of 15 μg/mL, and final concentration of solvent DMSO of 0.5%), and each the mixture was statically cultured at 37° C. in a nitrogen atmosphere (anaerobic condition). Using a sample to which only DMSO was added at 0.5% (final concentration) as a control, it was confirmed that the influence of the solvent on the growth of each strain could be neglected.
# (§5) The viable cell count in the culture solution was measured at 0, 2, 8, 18, 30 and 44 hours after the start of culturing. A viable cell count (cfu/mL) was calculated from the number of emerged colonies after culturing part of the culture solution on a GAM broth agar plate under anaerobic conditions for 3 days (FIG. 1).
# [2] = tested on: HL110PA3 strain (RT6 strain); assay: Time course of viable cell count, HL110PA3 strain; settings: 15 μg/mL, pH 6.0, anaerobic 37° C., 0 to 44 hours (FIG. 1c)
# Protocol: as §4, §5
# [3] = tested on: HL053PA1 strain (RT4 strain); assay: Time course of viable cell count, HL053PA1 strain; settings: 15 μg/mL, pH 6.0, anaerobic 37° C., 0 to 44 hours (FIG. 1a)
# Protocol: as §4, §5
# [4] = tested on: HL043PA1 strain (RT5 strain) and HL110PA3 strain (RT6 strain); assay: Coculture test, coculturing strain suspension-2; set-up: dose or concentration left out as unconfirmed; settings: pH 6.0, 2 days (FIG. 2b)
# Description: (§6) Acne bacteria strains (HL053PA1 strain (RT4 strain), HL043PA1 strain (RT5 strain), and HL110PA3 strain (RT6 strain)) were respectively precultured in the same manner as in Example 1.
# (§7) The HL053PA1 strain (RT4 strain) and the HL110PA3 strain (RT6 strain) were suspended in a modified GAM broth liquid medium (pH 6.0) respectively at a concentration of 5.0×10^4 cfu/mL. Similarly, the HL043PA1 strain (RT5 strain) and the HL110PA3 strain (RT6 strain) were suspended respectively at a concentration of 5.0×10^4 cfu/mL. The suspensions were respectively designated as coculturing strain suspensions-1, and -2.
# (§8) […] Using a sample to which only 0.5% of DMSO was added as a control, it was confirmed that the influence of the solvent on the growth of each bacterium strain could be neglected.
# (§9) The test sample was statically cultured under anaerobic conditions at 37° C. for 2 days. After the culture, part of the culture solution was cultured under anaerobic conditions on a GAM broth agar plate (pH 7) for 3 days. The bacterium strains were identified based on the morphology (particularly size) of the emerged colonies, and the viable cell count (cfu/mL) of each bacterium strain was measured. From the measurement results, the proportion of each bacterium strain in the entire microbial cells was calculated (FIG. 2).
# [5] = tested on: HL053PA1 strain (RT4 strain) and HL110PA3 strain (RT6 strain); assay: Coculture test, coculturing strain suspension-1; set-up: dose or concentration left out as unconfirmed; settings: pH 6.0, 2 days (FIG. 2a)
# Description: as §6, §7, §8, §9
# [6] = 48 h, pH 6.0 modified GAM broth, anaerobic, 37° C., 2 days (Example 1)
# [7] = 72 h, pH 5.0, estimated from the growth on day 3
# [8] = pH 5.0, estimated from the growth on day 3
MIC (HL043PA2 strain (RT5)) [µg/mL],MIC (HL043PA1 strain (RT5); [6]) [µg/mL],MIC (HL043PA1 strain (RT5); [7]) [µg/mL],MIC (HL043PA1 strain (RT5); pH 5.5) [µg/mL],MIC (HL043PA1 strain (RT5); pH 6.5) [µg/mL],MIC (HL043PA1 strain (RT5); pH 7.0) [µg/mL],MIC against acne bacterium strain HL043PA1 strain (RT5) (HL043PA1 strain (RT5); [8]) [µg/mL],SMILES,"Growth of the HL043PA1 strain (RT5 strain), viable cell count time course [1]","Growth of the HL110PA3 strain (RT6 strain), viable cell count time course [2]","Growth of the HL053PA1 strain (RT4 strain), viable cell count time course [3]",Growth of the dominant strain in acne patients in coculture with RT6 strain [4],Growth of the dominant strain in acne patients in coculture with RT6 strain [5]
62.5,7.81,> 1000,15.6,3.9,7.8,>1000,"CCCCCCCCCCCCCCCCC(=O)O [Heptadecanoic acid (C17:0), Heptadecanoic acid]",–,–,–,–,–
3.9,1.95,15.6,3.9,1.95,3.9,–,"CCCCCCCCCCCCCCC(=O)O [Pentadecanoic acid (C15:0), Pentadecanoic acid]",suppressed first bacteriostatically and then bactericidally after 10 hours from the start of culturing,not suppressed,bacteriostatically suppressed,suppressed selectively,suppressed selectively
62.5,7.81,> 1000,62.5,3.9,15.6,>1000,"CCCCCCCCCCCCCCCC(=O)O [Palmitic acid (C16:0), Palmitic acid]",–,–,–,–,–
15.6,15.6,31.3,15.6,31.3,250,–,"CCCCCCCCCCCCCC(=O)O [Myristic acid (C14:0), Myristic acid]",–,–,–,–,–
